Values of other authors, collected in US20160076057A1, “INHIBITION OF METHANE AND HYDROGEN SULFIDE PRODUCTION IN ANAEROBIC DIGESTER ANIMAL FARMS, LANDFILLS, SEDIMENTS AND SEWER SYSTEMS” (Innovative Environmental Technologies, Inc., priority 2014, published 2016).
pIC50: −log10 of the molar value.

Key:
[1] = test system: F420-dependent NADP oxidoreductase enzyme; conditions: Sharma et al. (2011); for affinity for the model protein compared to natural ligand F420: 3D model structure, F420 binding cavity
cellulolytic bacteria = conditions: Wolin and Miller (2005)
Methanobrevibacter = conditions: Miller and Wolin (2001)
non-methanogens = conditions: Miller and Wolin (2001)
[2] = test system: pure methanogenic bacteria; conditions: Wolin and Miller (2005)

SMILES | affinity for the model protein compared to natural ligand F420 [1] | blocking the activity site for methane production [1] | effect on cellulolytic bacteria (cellulolytic bacteria) | methane formation (Methanobrevibacter) | concentration that completely inhibited growth (Methanobrevibacter; per ml of culture medium) [nmol/mL] | pIC50 (Methanobrevibacter; per ml of culture medium, read-out: concentration giving 50% inhibition of growth) | populations of the non-methanogens (non-methanogens) | growth and activity of pure methanogenic bacteria [2]
CC[C@H](C)C(=O)O[C@H]1C[C@@H](C)C=C2C=C[C@H](C)[C@H](CC[C@@H]3C[C@@H](O)CC(=O)O3)[C@H]21 [lovastatin, Lovastatin] | more affinity | very effective | without any negative effect | significantly inhibited | 10 | 5.40 | not affected | significantly reduced
CC[C@H](C)C(=O)O[C@H]1CCC=C2C=C[C@H](C)[C@H](CC[C@@H]3C[C@@H](O)CC(=O)O3)[C@H]21 [compactin, compactin (mevastatin)] | more affinity | very effective |  |  |  |  |  | 
